Measurements taken from patent US8604217B2, “Compound, a process for its preparation, a pharmaceutical composition, use of a compound, a method for modulating or regulating serine/threonine kinases and a serine/threonine kinases modulating agent” (Selvita S.A., priority 2009, dated 2013).

How the values were obtained:
[1] = tested on: human breast adenocarcinoma MCF7 cells; assay: Growth inhibition test (MTS) on MCF7 cells; type: cell-based; conditions: Homo sapiens, MCF7, 72 hours, read-out: MCF-7 ED50
Procedure: (§1) Two thousand cells of human breast adenocarcinoma MCF7 were inoculated into each well of a 96-well microplate (manufactured by Corning Corp.), and using DMEM medium (culture medium) containing 10% fetal calf serum (FCS). Next day, a dimethyl sulfoxide (DMSO) solution of each test compound prepared in a concentration of 10 mmol/L was further diluted with culture medium to the desired concentrations (0.1, 0.5, 1, 2.5, 5 and 10 micromol/L), and the diluted solution was added to each well. The individual wells were further cultured in 5% carbon dioxide at 37° C. for 72 hours. After completion of the culture, 10 μl MTS (3-(4,5-Dimethyl-2-thiazolyl)-5-(carboxymethoxyphenyl)-2-(4-sulfophenyl)-2H-tetrazolium, inner salt assay (CellTiter96® AQueous One Solution Cell Proliferation Assay, Promega) was added to each well, and culturing was performed in 5% carbon dioxide at 37° C. for 2 hours. Using a microplate spectrophotometer (Synergy 2 multi-mode microplate reader (BioTek)), the absorbance of each well was measured at 490 nm. The value for cells not incorporated with a test compound was designated as 100%. By comparing these values with the absorbance difference obtained at the well in which each test compound was added, the cell viability (% viability) after treatment with the test compound was calculated.

[2] = tested on: human acute lymphocytic leukemia E6.1 Jurkat cells; assay: Growth inhibition test (MTS) on E6.1 Jurkat cells; type: cell-based; conditions: 72 hours, read-out: Jurkat ED50
Procedure: as §1, with “Twenty” for “Two”, “acute lumphocytic leukemia E6.1 Jurkat” for “breast adenocarcinoma MCF7”, “Corp.)” for “Corp.), and”, “[…]” for “DMEM”

[3] = tested on: human hepatoma HepG2 cells; assay: Growth inhibition test (MTS) on HepG2 cells; type: cell-based; conditions: 72 hours, read-out: HepG2 ED50
Procedure: as §1, with “hepatoma HepG2” for “breast adenocarcinoma MCF7”, “Corp.)” for “Corp.), and”

[4] = tested on: human myelomonocytic, biphenotypic leukemia MV4-11 cells; assay: Growth inhibition test (MTS) on MV4-11 cells; type: cell-based; conditions: Homo sapiens, MV4-11, 72 hours, read-out: MV-4-11 ED50
Procedure: as §1, with “Ten” for “Two”, “myelomonocytic, biphenotypic leukemia MV4-11” for “breast adenocarcinoma MCF7”, “Corp.)” for “Corp.), and”, “Iscove's MDM” for “DMEM”

[5] = tested on: human prostate adenocarcinoma PC3 cells; assay: Growth inhibition test (MTS) on PC3 cells; type: cell-based; conditions: Homo sapiens, PC-3, 72 hours, read-out: PC-3 ED50
Description: as §1, with “prostate” for “breast”, “PC3” for “MCF7”, “F12K (Ham's F12:[…] 1:1)” for “DMEM”

[6] = target: PIM-1 (Homo sapiens (Human), UniProt P11309); assay: Luminometric kinase assay for PIM1 kinase (Kinase-Glo); type: biochemical; conditions: 1 μM ATP, 25 min at RT
Procedure: Kinase assay was performed using luminescent Kinase-Glo® (Promega) system. The Kinase-Glo® Luminescent Kinase Assay Platform provides a homogeneous, high-throughput screening method for measuring kinase activity by quantifying the amount of ATP remaining in solution following a kinase reaction. The luminescent signal is correlated with the amount of ATP present and is inversely correlated with the kinase activity. Appropriate amounts of both kinase and substrate were mixed in 96-well, white wall plate in the reaction buffer (8 mM MOPS/NaOH, pH7.0, 0.2 mM EDTA, 2 mM MgCl2). Tested compounds were diluted in DMSO and serial dilutions starting with 1 μM were added to the palates. Reaction was initiated by adding 1 μM of ATP solution and conducted for 25 min. at RT. Luminescent signal was detected by adding Kinase-Glo® reagent and measured using a microplate spectrophotometer (Synergy 2 multi-mode microplate reader (BioTek)). IC50 values were obtained by fitting sigmoidal dose-response curve (variable slope) using GraphPad Prism software.

PIM-1, sequence (P11309 whole entry): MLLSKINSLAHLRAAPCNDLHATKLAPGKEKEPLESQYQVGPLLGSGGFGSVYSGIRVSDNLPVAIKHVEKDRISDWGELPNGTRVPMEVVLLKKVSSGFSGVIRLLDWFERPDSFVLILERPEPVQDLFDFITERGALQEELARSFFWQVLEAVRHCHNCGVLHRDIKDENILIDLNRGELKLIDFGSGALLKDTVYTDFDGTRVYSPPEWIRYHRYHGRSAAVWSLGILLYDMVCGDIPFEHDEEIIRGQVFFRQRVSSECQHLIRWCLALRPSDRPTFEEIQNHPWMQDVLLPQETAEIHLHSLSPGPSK

Row | IC50 [1] [µM] | IC50 [2] [µM] | IC50 [3] [µM] | IC50 [4] [µM] | IC50 [5] [µM] | IC50 [6] [µM] | SMILES
1 | 4.94 | 4.52 | 4.29 | 3.41 | 3.2 | 0.138 | Brc1c(Br)c(Br)c2[nH]c(NC3CCCCCCC3)nc2c1Br [Compound 261, 4,5,6,7-tetrabromo-N-cyclooctyl-1H-benzo[d]imidazol-2-amine]
2 | 5.11 | 4.86 | 3.39 | 2.6 | 5.18 |  | CN1CCCN(c2nc3c(Br)c(Br)c(Br)c(Br)c3[nH]2)CC1 [Compound 256, 4,5,6,7-tetrabromo-2-(4-methyl-1,4-diazepan-1-yl)-1H-benzo[d]imidazole]
3 | 5.03 | 5.07 | 3.21 | 0.98 | 5.17 | 0.0116 | N[C@H]1CCCC[C@@H]1Nc1nc2c(Br)c(Br)c(Br)c(Br)c2[nH]1 [Compound 304SS, (1S,2S)-N1-(4,5,6,7-tetrabromo-1H-benzo[d]imidazol-2-yl)cyclohexane-1,2-diamine]
4 | 4.51 | 2.76 | 2.26 | 2.42 | 4.87 | 0.0433 | CN(C)CC(CNc1nc2c(Br)c(Br)c(Br)c(Br)c2[nH]1)C(O)c1ccccc1 (stereo not shown) [Compound 272, 2-((4,5,6,7-tetrabromo-1H-benzo[d]imidazol-2-ylamino)methyl)-3-(dimethylamino)-1-phenylpropan-1-ol]
5 | 5.9 | 7.11 | 5.49 | 6.44 | 3.51 |  | Brc1c(Br)c(Br)c2[nH]c(Nc3ccc4ccccc4c3)nc2c1Br [Compound 259, 4,5,6,7-tetrabromo-N-(naphthalen-3-yl)-1H-benzo[d]imidazol-2-amine]
6 | 4.2 | 4.4 | 2.2 | 1.6 | 2.5 |  | Brc1cccc(Nc2nc3c(Br)c(Br)c(Br)c(Br)c3[nH]2)c1 [Compound 236, 4,5,6,7-tetrabromo-N-(3-bromophenyl)-1H-benzo[d]imidazol-2-amine]
7 | 2.36 | 3.15 | 2.64 | 0.25 | 3.16 | 0.00526 | N[C@@H]1CCCC[C@H]1Nc1nc2c(Br)c(Br)c(Br)c(Br)c2[nH]1 [Compound 304RR, (1R,2R)-N1-(4,5,6,7-tetrabromo-1H-benzo[d]imidazol-2-yl)cyclohexane-1,2-diamine]
8 | 3.09 | 3.62 | 1.8 | 2.22 | 4.57 | 0.0674 | CCN1CCCC1CNc1nc2c(Br)c(Br)c(Br)c(Br)c2[nH]1 (stereo not shown) [Compound 265a, 4,5,6,7-tetrabromo-N-((1-ethylpyrrolidin-2-yl)methyl)-1H-benzo[d]imidazol-2-amine]
9 | 5.65 | 5.35 | 7.04 | 1.45 | 5.59 | 0.0299 | Brc1c(Br)c(Br)c2[nH]c(N3CCCNCC3)nc2c1Br [Compound 260, 4,5,6,7-tetrabromo-2-(1,4-diazepan-1-yl)-1H-benzo[d]imidazole]
10 | 8.31 | 8.42 | 3.58 | 4.86 | 8.83 | 0.0627 | CN(C)CCN(Cc1ccccc1)c1nc2c(Br)c(Br)c(Br)c(Br)c2[nH]1 [Compound 158, N-benzyl-4,5,6,7-tetrabromo-N-(2-(dimethylamino)ethyl)-1H-benzo[d]imidazol-2-amine]
11 | 6.63 | 7.05 | 4.33 | 3.95 |  | 0.598 | Nc1cc(Br)c(Br)cc1Nc1nc2c(Br)c(Br)c(Br)c(Br)c2[nH]1 [Compound 317, 4,5-dibromo-N1-(4,5,6,7-tetrabromo-1H-benzo[d]imidazol-2-yl)benzene-1,2-diamine]
12 | 9.43 | 8.97 | 1.23 | 6.03 | 8.31 | 0.287 | COc1ccc(Nc2nc3c(Br)c(Br)c(Br)c(Br)c3[nH]2)cc1OC [Compound 307, 4,5,6,7-tetrabromo-N-(3,4-dimethoxyphenyl)-1H-benzo[d]imidazol-2-amine]
13 | 7.15 | 7.84 | 9.01 | 5.96 |  | 0.109 | Brc1c(Br)c(Br)c2[nH]c(NCCN3CCN(c4ncccn4)CC3)nc2c1Br [Compound 247, 4,5,6,7-tetrabromo-N-(2-(4-(pyrimidin-2-yl)piperazin-1-yl)ethyl)-1H-benzo[d]imidazol-2-amine]
